Results from US6653306B1, “Epoxy-steroidal aldosterone antagonist and angiotensin II antagonist combination therapy” (G.D. Searle & Co., priority 1995, dated 2003).
Where two headings read alike, the source gives them in different places.

Key:
pressor response to AII = assay: Assay C: In vivo intragastric pressor assay response for AII antagonists; set-up: species or system rat; settings: intragastric, or intraduodenal for examples listed
Experimental: Assay C: In Vivo Intragastric Pressor Assay Response for AII Antagonists
Male Sprague-Dawley rats weighing 225-300 grams were anesthetized with methohexital (30 mg/kg, i.p.) and catheters were implanted into the femoral artery and vein. The catheters were tunneled subcutaneously to exit dorsally, posterior to the head and between the scapulae. The catheters were filled with heparin (1000 units/ml of saline). The rats were returned to their cage and allowed regular rat chow and water ad libitum. After full recovery from surgery (3-4 days), rats were placed in Lucite holders and the arterial line was connected to a pressure transducer. Arterial pressure was recorded on a Gould polygraph (mmHg). Angiotensin II was administered as a 30 ng/kg bolus via the venous catheter delivered in a 50 μl volume with a 0.2 ml saline flush. The pressor response in mm Hg was measured by the differer.-:e from pre-injection arterial pressure to the maximum pressure achieved. The AII injection was repeated every 10 minutes until three consecutive injections yielded responses within 4 mmHg of each other. These three responses were then averaged and represented the control response to AII. The test compound was suspended in 0.5% methylcellulose in water and was administered by gavage. The volume administered was 2 ml/kg body weight. The standard dose was 3 mg/kg. Angiotensin II bolus injections were given at 30, 45, 60, 75, 120, 150, and 180 minutes after gavage. The pressor response to AII was measured at each time point. The rats were then returned to their cage for future testing. A minimum of 3 days was allowed between tests. Percent inhibition was calculated for each time point following gavage by the following formula:
[(Control Response—Response at time point)/Control Response]×100.

rabbit aortic rings = assay: Assay B: In vitro vascular smooth muscle response for AII (antagonist activity, pA2); format: cell-based; settings: Oryctolagus cuniculus, two values per cell separated by / are separate determinations
Experimental: Assay B: In Vitro Vascular Smooth Muscle-response for AII
The compounds of the invention were tested for antagonist activity in rabbit aortic rings. Male New Zealand white rabbits (2-2.5 kg) were sacrificed using an overdose of pentobarbital and exsanguinated via the carotid arteries. The thoracic aorta was removed, cleaned of adherent fat and connective tissue and then cut into 3-mm ring segments. The endothelium was removed from the rings by gently sliding a rolled-up piece of filter paper into the vessel lumen. The rings were then mounted in a water-jacketed tissue bath, maintained at 37° C., between moveable and fixed ends of a stainless steel wire with the moveable end attached to an FT03 Grass transducer coupled to a Model 7D Grass Polygraph for recording isometric force responses. The bath was filled with 20 ml of oxygenated (95% oxygen/5% carbon dioxide) Krebs solution of the following composition (mM): 130 NaCl, […], 15 KCl, 1.2 NaH2PO4, 1.2 MgSO4, 2.5 CaCl2, and 11.4 glucose. The preparations were equilibrated for one hour before approximately one gram of passive tension was placed on the rings. Angiotensin II concentration-response curves were then recorded (3×10^−10 to 1×10^−5 M). Each concentration of AII was allowed to elicit its maximal contraction, and then AII was washed out repeatedly for 30 minutes before rechallenging with a higher concentration of AII. Aorta rings were exposed to the test antagonist at […] for 5 minutes before challenging with AII. Adjacent segments of the same aorta ring were used for all concentration-response curves in the presence or absence of the test antagonist. The effectiveness of the test compound was expressed in terms of pA2 values and were calculated according to H. O. Schild [Br. J. Pharmacol, Chemother., 2,189-206 (1947)]. The pA2 value is the concentration of the antagonist which increases the EC50 value for AII by a factor of two. Each test antagonist was evaluated in aorta rings from two rabbits.

[1] = target: angiotensin II AT1 receptor; assay: Assay A: Angiotensin II binding activity (125I-AII displacement, rat uterine membrane preparation)
[2] = in vitro vascular smooth muscle response, read-out: Assay B pA2 (converted)
[3] = Rattus norvegicus, dose 3 mg/kg

Row | SMILES | Kb (rabbit aortic rings; [2]) [nM] | IC50 [1] [nM] | further results
1 | CCCCc1nc2c(O)nnc(O)c2n1Cc1ccc(-c2ccccc2-c2nnn[nH]2)cc1 [Compound 111] | 1 |  | inhibition at 30 mg/kg (pressor response to AII; Rattus norvegicus, dose 30 mg/kg): 87%
2 | CCCCc1nc2cnnc(O)c2n1Cc1ccc(-c2ccccc2-c2nnn[nH]2)cc1 [Compound 115] | 6.31 |  | inhibition at 3 mg/kg (pressor response to AII; [3]): 40%; Assay C Duration (pressor response to AII; dose 3 mg/kg): >240 min
3 | CCCCc1nc2c(CCC)nnc(O)c2n1Cc1ccc(-c2ccccc2-c2nnn[nH]2)cc1 [Compound 113] | 3.98 |  | inhibition at 10 mg/kg (pressor response to AII; Rattus norvegicus, dose 10 mg/kg): 60%; Assay C Duration (pressor response to AII; dose 10 mg/kg): 180 min
4 | CCCCc1nc2c(OC(=O)Cc3ccccc3)nnc(O)c2n1Cc1ccc(-c2ccccc2-c2nnn[nH]2)cc1 [Compound 124] |  |  | inhibition at 3 mg/kg (pressor response to AII; [3]): 45%; Assay C Duration (pressor response to AII; dose 3 mg/kg): >180 min; Kb (rabbit aortic rings; read-out: Assay B pA2, in vitro vascular smooth muscle response (converted)): 0.38 nM
5 | CCCCc1nc(Cl)nn1Cc1ccc(-c2ccccc2C(=O)O)cc1 [compound 6] | 282 |  | inhibition at 100 mg/kg (pressor response to AII; Rattus norvegicus, dose 100 mg/kg): 90%
6 | CCCCc1nc(Cl)c(CO)n1Cc1ccc(-n2cccc2C(=O)O)cc1 [Compound 148] | 1580 |  | inhibition at 3 mg/kg (pressor response to AII; [3]): 92%; Assay C Duration (pressor response to AII; dose 3 mg/kg): 20 to 30 min
7 | CCCCc1nc(C(F)F)nn1Cc1ccc(-c2ccccc2-c2nnn[nH]2)cc1 [Compound 47] | 14.1 | 21 | 
8 | CCCCc1nc(CC)n(Cc2ccc(-c3ccccc3C(=O)O)cc2)n1 [Compound 76] | 3020 | 5400 | 
9 | CCCCc1nc2c(Cl)nnc(Cl)c2n1Cc1ccc(-c2ccccc2-c2nnn[nH]2)cc1 [Compound 110] | 398 | 590 | 
10 | CCCCCCn1nc(CCCC)n(Cc2ccc(-c3ccccc3-c3nn[nH]n3)cc2)c1=O [Compound 85] | 1.26 | 8.7 | 
11 | CCCCc1nc(-c2ccccc2)n(Cc2ccc(-c3ccccc3-c3nnn[nH]3)cc2)n1 [Compound 22] | 251 | 460 | 
12 | CCCCc1nn(C(=O)CCC)c(=O)n1Cc1ccc(-c2ccccc2-c2nn[nH]n2)cc1 [Compound 95] | 6.31 | 66 | 
13 | CCCCc1nn(C(CC(=O)OCC)C(=O)c2ccccc2)c(=O)n1Cc1ccc(-c2ccccc2-c2nn[nH]n2)cc1 (stereo not drawn) [Compound 101] | 15.8 | 36 | 
14 | CCCCc1nc(Cc2ccc(-c3ccccc3-c3nnn[nH]3)nc2)n(CC(C)(C)C)n1 [Compound 184] | 166 | 1100 | 
15 | CCCCn1nc(/C=C/c2cccs2)nc1Cc1ccc(-c2ccccc2-c2nnn[nH]2)nc1 [Compound 154] | 6.46 | 97 | 
16 | CCCCc1ncnn1Cc1ccc(-c2ccccc2C(=O)O)cc1 [Compound 18] | 724 | 970 | 
17 | CCCCCn1nc(CCCC)n(Cc2ccc(-c3ccccc3-c3nn[nH]n3)cc2)c1=O [Compound 90] | 1 | 5.6 | 
18 | CCCCc1nc(CNC(=O)CCC(NC(C)=O)C(=O)OC(C)(C)C)nn1Cc1ccc(-c2ccccc2-c2nnn[nH]2)cc1 (stereo not drawn) [Compound 41] | 2090 | 3700 | 
19 | CCCCc1nc(CCCC2CCCCC2)n(Cc2ccc(-c3ccccc3-c3nnn[nH]3)cc2)n1 [Compound 57] | 1000 | 2300 | 
20 | CCCCn1nc(C(OC(C)C)OC(C)C)nc1Cc1ccc(-c2ccccc2-c2nnn[nH]2)nc1 [Compound 178] | 28.8 | 88 | 

Row | SMILES | Kb (rabbit aortic rings; [2]) [nM] | IC50 [1] [nM] | further results
21 | CCCCc1nc(CC2CCCCC2)nn1Cc1ccc(-c2ccccc2-c2nnn[nH]2)cc1 [Compound 74] | 2.75 | 6.5 | 
22 | CCCCc1nc(CCC)n(Cc2ccc(-c3ccccc3-c3nnn[nH]3)cc2)n1 [Compound 15] | 4.9 | 16 | 
23 | CCCn1nc(C(C)(F)F)nc1Cc1ccc(-c2ccccc2-c2nnn[nH]2)nc1 [Compound 165] | 126 | 410 | 
24 | CCCCn1nc(C(F)(F)CC)nc1Cc1ccc(-c2ccccc2-c2nnn[nH]2)nc1 [Compound 168] | 20.4 | 420 | 
25 | CCCCc1nc2c(OCC)nnc(OCC)c2n1Cc1ccc(-c2ccccc2-c2nnn[nH]2)cc1 [Compound 112] | 6310 | 2000 | 
26 | CCCCc1nn(CC(=O)OCC)c(=O)n1Cc1ccc(-c2ccccc2-c2nn[nH]n2)cc1 [Compound 86] | 15.8 | 9 | 
27 | CCCCc1nn(CC(OCc2ccccc2)c2ccccc2)c(=O)n1Cc1ccc(-c2ccccc2-c2nn[nH]n2)cc1 (stereo not drawn) [Compound 97] | 20 | 280 | 
28 | CCCCc1nc(CCC(=O)O)n(Cc2ccc(-c3ccccc3-c3nnn[nH]3)cc2)n1 [Compound 64] | 100 | 54 | 
29 | CCCCc1nn(CCCCC(=O)O)c(=O)n1Cc1ccc(-c2ccccc2-c2nn[nH]n2)cc1 [Compound 103] | 10 | 12 | 
30 | CCCc1nc(CCC)n(Cc2ccc(-c3ccccc3-c3nnn[nH]3)cc2)n1 [Compound 12] | 2.19 | 6 | 
31 | CCCCc1nn(CCCC)c(=O)n1Cc1ccc(-c2ccccc2-c2nnn[nH]2)cc1 [Compound 79] | 0.631 | 4.9 | 
32 | CCCc1nc(CCC)n(Cc2ccc(-c3ccccc3-c3nnn[nH]3)nc2)n1 [Compound 246] | 34.7 | 72 | 
33 | CCCCc1nc(C)n(Cc2ccc(-c3ccccc3C(=O)O)cc2)n1 [Compound 77] | 1700 | 15000 | 
34 | CCCCc1nn(CC2CC2)c(=O)n1Cc1ccc(-c2ccccc2-c2nn[nH]n2)cc1 [Compound 104] | 10 | 15 | 
35 | CCCCn1nc(C(=O)NC)nc1Cc1ccc(-c2ccccc2-c2nnn[nH]2)nc1 [Compound 172] | 70.8 | 70 | 
36 | CCCCc1nc(CCCNC(=O)OC(C)(C)C)n(Cc2ccc(-c3ccccc3-c3nnn[nH]3)cc2)n1 [Compound 67] | 1320 | 3100 | 
37 | CCCCc1nn(CC(OCC(=O)OCC)c2ccccc2)c(=O)n1Cc1ccc(-c2ccccc2-c2nn[nH]n2)cc1 (stereo not drawn) [Compound 107] | 5.01 | 180 | 
38 | CCCCc1nc(CN)n(Cc2ccc(-c3ccccc3-c3nnn[nH]3)cc2)n1 [Compound 36] | 1200 | 1400 | 
39 | CCCCc1nc(Cc2ccc(-c3ccccc3C(=O)O)cc2)nn1CCCC [Compound 127] | 11000 | 12000 | 
40 | CCCCc1nc(CCc2ccccc2)n(Cc2ccc(-c3ccccc3-c3nnn[nH]3)cc2)n1 [Compound 25] | 158 | 480 | 
